For series [1] the following is noted: approximate; cited from earlier work.
Series [2] in a line: Salivary cortisol awakening response. It counts as in vivo, human. Also on record: Cortisol Awakening Response (AUC) / Cortisol Awakening Response (AUC) Δ: unit not given here. As to conditions: for Average Cortisol / Cortisol Awakening Response (AUC): mean ± SE; for Average Cortisol Δ / Average Cortisol Δ (%) / Cortisol Awakening Response (AUC) Δ / Cortisol Awakening Response (AUC) Δ (%): change baseline to W 8; for Average Cortisol ES (d) / Cortisol Awakening Response (AUC) ES (d): effect size. The text has this: At baseline and after 4 and 8 weeks of the intervention, participants completed two testing sessions: (1) a morning assessment conducted after an overnight fast for assessment of body composition, metabolism, vascular measures and subjective factors: and (2) an afternoon assessment of muscular performance, conducted in the non-fasted state. For morning assessments, participants reported to the laboratory after abstention from eating, drinking, exercising and utilizing caffeine or nicotine for ≥8 hours. Participants were interviewed to confirm adherence to these pre-assessment restrictions. The actual abstention from exercise was ≥14 hours due to the scheduling of exercise sessions. Participants reported to the laboratory wearing athletic clothing, and all metal and accessories were removed from the body prior to testing. Each participant voided her bladder and provided a urine sample. Urine samples were assessed for urine specific gravity (USG) using a digital refractometer (PA201X-093. Misco, Solon, Ohio. USA). Additionally, a standard urinary HCG test was performed to confirm that each participant was not pregnant. Finally, urinary samples were frozen at −80° C. for assessment of urinary HMB content after study unblinding. After voiding, each participant's body mass (BM) and height were determined via digital scale with stadiometer (Seca 769, Hamburg, Germany). Blood draws were performed at Texas Tech University Student Health Services after an overnight fast, and participants completed at-home saliva collections for assessment of the cortisol awakening response (CAR).
Each participant was familiarized with the saliva collection procedures at the baseline visit. Saliva collection took place using the passive drool method, with allows for saliva to be transferred from the mouth to a small vial according to manufacturer recommendations (36). Three saliva samples during the baseline period for assessment of the cortisol awakening response (CAR; the characteristic increase in cortisol concentrations upon waking (37)). These samples were collected at the participant's home 0, 30 and 45 minutes after waking. The importance of collecting the saliva sample exactly as instructed was strongly emphasized to research participants. Participants were provided with reminder signs to place by the bedside and were instructed to set alarms for saliva collection timepoints. Upon obtaining the sample, each participant was instructed to place the vial in the freezer until it could be transported to the laboratory. Upon delivery to the lab, each vial of saliva was stored at −80° C. until shipment to a saliva testing facility for analysis (Salimetrics LLC, Carlsbad, Calif., USA). For the analysis, samples were thawed to room temperature, vortexed, and then centrifuged for 15 minutes at approximately 3,000 RPM (1,500×g) immediately before performing the assay. Samples were tested for salivary cortisol using a high sensitivity enzyme immunoassay (Cat. No. 1-3002). Sample test volume was 25 μl of saliva per determination. The assay has a lower limit of sensitivity of 0.007 μg/dL, a standard curve range from 0.012-3.0 μg/dL, and an average intra-assay coefficient of variation of 4.60%, and an average inter-assay coefficient of variation 6.00%, which meets the manufacturers' criteria for accuracy and repeatability in Salivary Bioscience. and exceeds the applicable NIH guidelines for Enhancing Reproducibility through Rigor and Transparency.

SMILES strings stand for the structures.

For `CC(C)(O)CC(=O)O` [TRFHMB, β-hydroxy-β-methylbutyrate], the “Loss of HMB to urine after HMB is fed” value in series [1] is listed as 20-50%. In series [2] (ITT, Baseline), the “Average Cortisol” value worked out at 0.40 ± 0.07 µg/dL and the “Cortisol Awakening Response (AUC)” value turned out to be 17.5 ± 3.2. Besides, in series [2] (ITT, W 8), the “Average Cortisol” value was found to be 0.39 ± 0.98 µg/dL and the “Cortisol Awakening Response (AUC)” value is on record as 16.9 ± 4.0. Also, in series [2] (ITT), the “Average Cortisol Δ” value is -0.01 µg/dL, the “Average Cortisol Δ (%)” value is reported as −3%, the “Cortisol Awakening Response (AUC) Δ” value was −0.6 and the “Cortisol Awakening Response (AUC) Δ (%)” value is −3%. Moreover, in series [2] (ITT), the “Average Cortisol ES (d)” value is given as −0.04 and the “Cortisol Awakening Response (AUC) ES (d)” value was −0.05. Besides, in series [2] (PP, Baseline), the “Average Cortisol” value stood at 0.34 ± 0.07 µg/dL and the “Cortisol Awakening Response (AUC)” value was determined as 14.0 ± 3.3. Moreover, in series [2] (PP, W 8), the “Average Cortisol” value is 0.42 ± 0.1 µg/dL and the “Cortisol Awakening Response (AUC)” value stood at 18.2 ± 4.7. In series [2] (PP), the “Average Cortisol Δ” value turned out to be 0.1 µg/dL, the “Average Cortisol Δ (%)” value amounted to 24%, the “Cortisol Awakening Response (AUC) Δ” value is 4.2 and the “Cortisol Awakening Response (AUC) Δ (%)” value stood at 30%. Also, in series [2] (PP), the “Average Cortisol ES (d)” value is given as 0.93 and the “Cortisol Awakening Response (AUC) ES (d)” value is 0.64.

(Values after patent US20190209501A1, “COMPOSITIONS AND METHODS OF USE OF BETA-HYDROXY-BETA-METHYLBUTYRATE (HMB) […] IN[…]” (Texas Tech University Office of Research Commercialization, priority 2018, published 2019).)
